# Reference: patent US20110306639A1, “HYDROCARBYLIDENE NITROHYDROZINECARBOXIMIDAMIDES AND A METHOD FOR MAKING THE SAME, AS WELL AS THEIR USES AS AN INSECTICIDE” (priority 2008, published 2011)
# Where two headings read alike, the source gives them in different places.
# Assays:
# [1] = test system: hyalopterus pruni; settings: 24 h
# [2] = test system: aphis gossypii; settings: 24 h
# [3] = test system: asparagus caterpillar
# [4] = test system: Helicoverpa armigera
# [5] = test system: myzus persicae; settings: for numbers of death/total numbers: 24 h
# [6] = test system: bemisia tabaci gennadius
Structure (SMILES),mortality(%) asparagus caterpillar (500 μg/mL) ([3]; in vivo),mortality(%) Helicoverpa armigera (500 μg/mL) ([4]; in vivo),mortality(%) myzus persicae (600 μg/mL) ([5]; in vivo),mortality(%) bemisia tabaci gennadius (500 μg/mL) ([6]; in vivo),also measured
CCCCCCC=NNC(=N[N+](=O)[O-])NCc1ccc(Cl)nc1 [Compound 50],0%,20%,100%,–,numbers of death/total numbers ([1]; 25 μg/mL): 104/108; numbers of death/total numbers ([1]; 50 μg/mL): 98/102; numbers of death/total numbers ([1]; 100 μg/mL): 101/101; numbers of death/total numbers ([1]; 200 μg/mL): 110/110; numbers of death/total numbers ([1]; 400 μg/mL): 102/102; numbers of death/total numbers ([2]; 3.13 μg/mL): 156/157; numbers of death/total numbers ([2]; 12.5 μg/mL): 150/150; numbers of death/total numbers ([2]; 50 μg/mL): 245/245; numbers of death/total numbers ([5]; 25 μg/mL): 78/78; numbers of death/total numbers ([5]; 50 μg/mL): 91/92; numbers of death/total numbers ([5]; 100 μg/mL): 87/87; numbers of death/total numbers ([5]; 200 μg/mL): 103/107; numbers of death/total numbers ([5]; 400 μg/mL): 96/96
CCCCC=NNC(=N[N+](=O)[O-])NCc1ccc(Cl)nc1 [Compound 56],20%,70%,100%,–,numbers of death/total numbers ([1]; 25 μg/mL): 100/104; numbers of death/total numbers ([1]; 50 μg/mL): 96/101; numbers of death/total numbers ([1]; 100 μg/mL): 121/121; numbers of death/total numbers ([1]; 200 μg/mL): 101/101; numbers of death/total numbers ([1]; 400 μg/mL): 103/103; numbers of death/total numbers ([2]; 3.13 μg/mL): 121/157; numbers of death/total numbers ([2]; 12.5 μg/mL): 136/164; numbers of death/total numbers ([2]; 50 μg/mL): 166/178; numbers of death/total numbers ([5]; 25 μg/mL): 104/104; numbers of death/total numbers ([5]; 50 μg/mL): 96/99; numbers of death/total numbers ([5]; 100 μg/mL): 149/149; numbers of death/total numbers ([5]; 200 μg/mL): 81/81; numbers of death/total numbers ([5]; 400 μg/mL): 77/77
C=CCNC(=N[N+](=O)[O-])NN=Cc1ccccc1Cl [Compound 93],70%,40%,96.0%,–,numbers of death/total numbers ([1]; 25 μg/mL): 102/112; numbers of death/total numbers ([1]; 50 μg/mL): 104/108; numbers of death/total numbers ([1]; 100 μg/mL): 103/103; numbers of death/total numbers ([1]; 200 μg/mL): 110/110; numbers of death/total numbers ([1]; 400 μg/mL): 103/103; numbers of death/total numbers ([2]; 3.13 μg/mL): 178/186; numbers of death/total numbers ([2]; 12.5 μg/mL): 124/124; numbers of death/total numbers ([2]; 50 μg/mL): 138/138; numbers of death/total numbers ([5]; 25 μg/mL): 112/112; numbers of death/total numbers ([5]; 50 μg/mL): 94/98; numbers of death/total numbers ([5]; 100 μg/mL): 104/104; numbers of death/total numbers ([5]; 200 μg/mL): 114/114; numbers of death/total numbers ([5]; 400 μg/mL): 93/93
CCOc1ccc(C=NNC(=N[N+](=O)[O-])NCc2ccccc2)cc1OC [Compound 98],10%,40%,13.3%,–,–
C=CCNC(=N[N+](=O)[O-])NN=Cc1ccc(OCC)c(OC)c1 [Compound 99],30%,50%,45.8%,–,–
CCCNC(=N[N+](=O)[O-])NN=Cc1ccc(F)cc1 [Compound 100],90%,20%,20.3%,–,–
C=CCNC(=N[N+](=O)[O-])NN=Cc1ccc(F)cc1 [Compound 101],30%,40%,17.7%,–,–
C#CCNC(=N[N+](=O)[O-])NN=Cc1ccc(F)cc1 [Compound 102],50%,50%,31.6%,–,–
Cc1ccc(C=NNC(=N[N+](=O)[O-])NCc2ccc(Cl)nc2)cc1 [Compound 107],–,–,–,–,"mortality(%) asparagus caterpillar (500 μg/mL) ([3]; 500 μg/mL, 48 hours): 20%; mortality(%) Helicoverpa armigera (500 μg/mL) ([4]; 500 μg/mL, 48 hours): 10%; mortality(%) myzus persicae (600 μg/mL) ([5]; 600 μg/mL): 3.7%"
O=[N+]([O-])N=C(NCc1ccc(Cl)nc1)NN=Cc1ccccc1 [Compound 110],–,–,–,–,"mortality(%) bemisia tabaci gennadius (500 μg/mL) ([6]; 500 μg/mL, 48 hours): 6.67%; mortality(%) asparagus caterpillar (500 μg/mL) ([3]; 500 μg/mL, 48 hours): 30%; mortality(%) Helicoverpa armigera (500 μg/mL) ([4]; 500 μg/mL, 48 hours): 0%; mortality(%) myzus persicae (600 μg/mL) ([5]; 600 μg/mL): 92.8%"
O=[N+]([O-])N=C(NCc1ccc(Cl)nc1)NN=Cc1ccccc1Cl [Compound 111],40%,0%,22.0%,13.89%,–
COc1ccc(C=NNC(=N[N+](=O)[O-])NCc2ccc(Cl)nc2)cc1 [Compound 112],90%,10%,54.4%,3.77%,–
O=[N+]([O-])N=C(NCc1ccc(Cl)nc1)NN=Cc1ccc(F)cc1 [Compound 114],70%,40%,72.3%,2.04%,–
O=[N+]([O-])N=C(NCc1ccc(Cl)nc1)NN=Cc1ccco1 [Compound 115],80%,10%,86.0%,9.30%,–
CNC(=N[N+](=O)[O-])NN=Cc1ccccc1Cl [Compound 117],–,–,–,17.78%,–
CNC(=N[N+](=O)[O-])NN=Cc1cccc(Oc2ccccc2)c1 [Compound 118],–,–,–,14.81%,–
CNC(=N[N+](=O)[O-])NN=Cc1ccccc1OC [Compound 119],–,–,–,–,"mortality(%) bemisia tabaci gennadius (500 μg/mL) ([6]; 500 μg/mL, 48 hours): 72.00%"
CNC(=N[N+](=O)[O-])NN=Cc1ccc(N(C)C)cc1 [Compound 120],–,–,–,82.76%,–
CNC(=N[N+](=O)[O-])NN=Cc1ccc(OC)cc1 [Compound 121],–,–,–,16.95%,–
CNC(=N[N+](=O)[O-])NN=Cc1ccc(F)cc1 [Compound 123],–,–,–,4.69%,–
CNC(=N[N+](=O)[O-])NN=Cc1ccco1 [Compound 124],–,–,–,88.68%,–
CCNC(=N[N+](=O)[O-])NN=Cc1ccccc1Cl [Compound 125],–,–,–,53.06%,–
CCNC(=N[N+](=O)[O-])NN=Cc1ccc(OCC)c(OC)c1 [Compound 126],–,–,–,6.67%,–
CCNC(=N[N+](=O)[O-])NN=Cc1ccc(OC)cc1 [Compound 127],–,–,–,24.56%,–
CCNC(=N[N+](=O)[O-])NN=Cc1ccc(F)cc1 [Compound 129],–,–,–,8.62%,–
CCCNC(=N[N+](=O)[O-])NN=Cc1ccc(OC)cc1 [Compound 130],–,–,–,18.46%,–
COc1ccc(C=NNC(=N[N+](=O)[O-])NCc2ccccc2)cc1 [Compound 131],–,–,–,1.89%,–
O=[N+]([O-])N=C(NCc1ccccc1)NN=Cc1ccc(F)cc1 [Compound 133],–,–,–,3.77%,–
CCOc1ccc(C=NNC(=N[N+](=O)[O-])NCc2ccc(Cl)nc2)cc1OC [Compound 134],–,–,–,1.82%,–
